The record followed here is publication PMC8624998, “Synthesis and Antiproliferative Evaluation of 3-Chloroazetidin-2-ones with Antimitotic Activity: Heterocyclic Bridged Analogues of Combretastatin A-4” (Pharmaceuticals, 2021).

The test system of series [1] is microtubule network of MCF-7 cells. Kind of series: Immunofluorescence (confocal) of microtubule network. The format is cell-based, human. The note with it: MCF-7, 16 h; 10n 0.05, 0.1, 0.5 μM; CA-4 10 nM; paclitaxel 1 μM. The protocol:
Subsequently, the effect of the representative compound 10n on the organisation of microtubule cytoskeleton of MCF-7 cells was also determined by confocal microscopy using an anti-tubulin antibody (Figure 8). […] The MCF-7 cell nuclei (stained blue) were also clearly observed (Figure 8A). […] The treatment of MCF-7 breast cancer cells with CA-4 tubulin-targeting agents has been reported to result in the formation of multiple micronuclei and mitotic catastrophes.
Confocal microscopy was used to study the effects on MCF-7 cytoskeleton following treatment with compound 10n following the protocols previously reported. For each experiment, all images were collected on the same day using identical parameters. MCF-7 cells were seeded (1 × 10^5 cells/mL) on eight chamber glass slides. Cells were either untreated or treated with vehicle (1% ethanol (v/v)), CA-4 (10 nM), Paclitaxel (1 μM) and β-lactam compound 10n at 50 nM, 100 nM and 500 nM concentrations for 16 h. The cells were then gently washed in PBS and then fixed for 30 min with 100% ice-cold MeOH. Cells were washed three times in PBS for 10 min and then permeabilised in 0.5% Triton X-100. The cells were subsequently washed in PBS containing 0.1% Tween (PBST), and then blocked in bovine serum albumin (5%) diluted in PBST. Cells were then incubated with a mouse monoclonal anti-α-tubulin−FITC antibody (clone DM1A) (1:200) for 2 h at 20 °C. Following washes in PBST, cells were incubated with Alexa Fluor 488 dye (1:500) for 1 h at 20 °C. Following further washes in PBST, the cells were mounted in Ultra Cruz Mounting Media, which contained 4,6-diamino-2-phenolindol dihydrochloride (DAPI). The images were photographed using Leica SP8 confocal microscopy with the Leica application suite X software program. Experiments were performed on three independent occasions.
Figure 8 Compound 10n depolymerises the microtubule network of MCF-7 breast cancer cells. Cells were treated with (A) vehicle control ([…]), (B) CA-4 (10 nM), (C) paclitaxel (1 μM) and compound 10n, (D) (50 nM), (E) (100 nM) and (F) (500 nM) for 16 h. […]

Another series has as its system MCF-7 cells. Kind of series: Cell viability assay (MTT/AlamarBlue), antiproliferative activity. The format is cell-based, human. From the text:
[…]. The introduction of the halogen substituent at C-3 was examined in an effort to investigate the effect on the activity of this substituent, and subsequently optimising the cytotoxic effects against MCF-7 human breast cancer cells.
(§1) The human breast carcinoma cell line MCF-7 was purchased from the European Collection of Animal Cell Cultures (ECACC). Triple negative breast cancer Hs578T cells and its invasive variant Hs578Ts(i)8 were a kind gift from Dr. Susan McDonnell, School of Chemical and Bioprocess Engineering, University College Dublin. U266 cells were a gift from Dr. Tony McElligott, School of Medicine, St James’s Hospital, Trinity College Dublin. HT-29 cells were purchased from the European Collection of Cell Cultures (originating from a human adenocarcinoma of the colon). The human breast carcinoma cell line MDA-MB-231 and the HL-60 cells derived from a patient with acute myeloid leukaemia were both obtained from ECACC (Salisbury, UK). The SW-480 cells were a kind gift from Dr. Brian Flood, School of Biochemistry and Immunology, Trinity College Dublin. HEK-293T (normal epithelial embryonic kidney cells) were cultured in Dulbecco’s Modified Eagle’s Medium (DMEM) with GlutaMAXTM-I in the absence of non-essential amino acids. Human breast cancer MCF-7 cells and multiple myeloma U266 cells were cultured in Minimum Essential Media (MEM) with GlutaMAX™-I, supplemented with 1% (v/v) non-essential amino acids, 10% 2(v/v) foetal bovine serum (FBS) and 1% (v/v) penicillin/streptomycin 5000 U/mL. MDA-MB-231 cells were maintained in DMEM supplemented with 10% (v/v) foetal bovine serum, 2 mM L-glutamine and 100 μg/mL penicillin/streptomycin (complete medium). Colon cancer HT-29 and SW-480 and triple negative breast cancer Hs578T and its invasive variant Hs578T8i were cultured in DMEM with GlutaMAX™-I, with the same supplement in the absence of non-essential amino acids. Leukaemia HL-60 cancer cells were cultured in Roswell Park Memorial Institute Media (RPMI-1640) with GlutaMAX™-I, supplemented with 10% FCS media, and 100 μg/mL penicillin/streptomycin as above. Cell numbers were monitored using a haemocytometer. Cell culture flasks were incubated in a humidified incubator (5% CO2/95% air) at 37 °C. All cell lines were sub-cultured three times per week with trypsinisation using TrypLE Express (1X) required for adherent cell lines.
(§2) . All stock solutions and serial dilution in ethanol/DMSO were stored at -20 °C. All cells were seeded at a density of 2.5 × 10^4 cells/mL in a 96-well plate (200 μL per well). The cells were incubated in a […] atmosphere at 37 °C for 24 h, then treated with test compound (2 μL of stock solutions per 200-microlitre well) in ethanol to obtain a concentration range of 1 nM–200 μM for the study. The plates were then re-incubated for a further 72 h. Control wells contained an equivalent volume of the vehicle ethanol or DMSO (1% v/v). MTT cell viability assay: The culture medium was removed, and the cells were washed with phosphate buffered saline (PBS, […]). MTT (dissolved in PBS, […]) was added to obtain a final concentration of MTT (1 mg/mL). Cells were incubated at 37 °C for 3 h in the dark. Solubilisation was commenced by the addition of DMSO ([…]) and the cells were maintained at 20 °C in the dark for 20 min before reading the absorbance to ensure complete colour diffusion. The absorbance value of control cells (no added compound) was set to 100% cell viability and absorbance versus cell density per well was determined to assess cell viability using Graph-Pad Prism software. AlamarBlue cell viability assay: Cells were seeded in 96-well plates (e.g., MCF-7, 5 × 10^3 cells/well) and (HT-29 cells, 1 × 10^3 cells/well) and (HL-60 cells, 1 × 10^4 cells/well) with a total volume per well of 200 µL. After 24 h, cells were treated in triplicate with serial dilutions of CA-4 or β-lactam analogues (0.001–100 μM), medium alone or vehicle (1% ethanol (v/v)). […]

The test system of another series is SW480 cells. Nature of the series: Cell viability assay, antiproliferative activity. The format is cell-based, human. The following applies: SW480, 10 μM. How it is done:
[…]. The corresponding values for 10e in these cell lines were 161 nM (HL-60), 55 nM (SW480) and 135 nM (HT-29). […] […]. SW480 colon cells expressed low levels of the UDP-glucuronosyltransferase (UGT) protein compared to expression levels in HT-29 cells. […] […].
as §1, §2

The nature of series [2]: HPLC stability study in phosphate buffers. The class given is physicochemical. The note with it: phosphate buffer. How it is done:
HPLC stability studies at three different pH systems were performed on a representative compound 16a to determine the stability at acidic pH 4, pH 7.4 and basic pH 9 (acid pH found in the stomach, basic found in the intestine and pH 7.4 in the plasma).
A stability study for compound 16a was performed by analytical HPLC using a Symmetry® column (C18, […], 4.6 × 150 mm), a Waters 2487 Dual Wavelength Absorbance detector, a Waters 1525 binary HPLC pump and a Waters 717 plus Autosampler (Waters Corporation, Milford, MA, USA). Samples were detected at λ 254 nm using acetonitrile (70%)/water (30%) as the mobile phase over 15 min and a flow rate of 1 mL/min. A stock solution of the compound was prepared using 10 mg of compound 16a in 10 mL of mobile phase (1 mg/mL). A calibration curve was prepared using a solution of 0.5, 0.25, 0.125, 0.0625, 0.03125, 0.015625 and 0.0078 mg/mL. (i) Stability of 16a in phosphate buffers: Phosphate buffers at pH values 4, 7.4 and 9 were prepared according to the British Pharmacopoeia 2020. A total of 300 µL of stock solution (1 mg/mL ACN) for 16a was added to a vial containing 9.7 mL of buffer, mixed and pre-heated to 37°C. A total of 1 mL of the solution was added to the HPLC glass vial and 10 µL was injected, followed by hourly injections for a 24-h period. Samples were withdrawn and analysed at time intervals of t = 0 min, 5 min, 30 min, 60 min and hourly for 24 h. The analysis was performed in triplicate. (ii) Thermal stability: 16a (1 mg) was placed in a vial (for the solution, 1 mL of stock solution was used) at 60 °C for 4 h on a heating block. The sample was then cooled, diluted with ACN and analysed using HPLC. (iii) Photostability study: A solution of compound 16a (1 mL of the stock solution) was placed in a vial and exposed to UV light for 4 h. The sample was directly analysed using HPLC. […] Once neutralised, the samples were analysed using HPLC. […] Once neutralised, the samples were analysed using HPLC. […] A sample from the vial was taken every hour over 4 h and analysed using HPLC.

In the case of `CC(=O)O[C@H]1C(=O)[C@@]2(C)[C@H]([C@H](OC(=O)c3ccccc3)[C@]3(O)C[C@H](OC(=O)[C@H](O)[C@@H](NC(=O)c4ccccc4)c4ccccc4)C(C)=C1C3(C)C)[C@]1(OC(C)=O)CO[C@@H]1C[C@@H]2O` [paclitaxel], the “effect on microtubule network” value in series [1] is “hyper-polymerisation of tubulin”.
Take `COc1ccc(C2C(Br)C(=O)N2c2cc(OC)c(OC)c(OC)c2)cc1` (stereo not shown) [Compound 16a, 3-Bromo-4-(4-methoxyphenyl)-1-(3,4,5-trimethoxyphenyl)azetidin-2-one]: in the series with MCF-7 cells (Homo sapiens, MCF7, 72 h, MCF-7, 72 h, read-out: IC50 (MCF-7, 72 h)), the IC50 worked out at 579 ± 30 nM. In addition, in the series with MCF-7 cells (MCF-7 IC50 ratio), the “fold decrease in activity vs corresponding 3-chloro compound 10e” value was found to be 17 fold. Further, the “SW480 inhibition of cell viability” value with SW480 cells is listed as 52%. Moreover, the half-life at 0.03 mg/mL in series [2] (buffer pH 4, 37°C) is 18 h; in series [2] (buffer pH 7.4, 37°C), 22 h; in series [2] (buffer pH 9, 37°C), 20 h.

As a reminder, the IC50 is the concentration that gives 50% inhibition. As a reminder, the half-life is the time in which the quantity being followed falls by half.
